Test results reported in patent US20190343874A1, “USE OF NICKEL COMPLEX IN PREPARING DRUG FOR RELIEVING INFLAMMATION” (NATIONAL TAIWAN NORMAL UNIVERSITY, priority 2018, published 2019).

Experiments:
[1] = test system: bladder tissue of adult female Wistar rats; experiment: bladder tissue slices and perfusion unit after para-phenylenediamine; assay type: in vivo; details: PPD i.p. for 4 weeks vs control group
Procedure: (§1) In the current embodiment, 24 adult female Wistar rats were adopted as the experimental animals in the animal experiments and were randomly divided into four groups to be treated with different intraperitoneal injections. Referring to Table 1, the four groups are as follows: 1) the control group: 1 mL/day saline solution for 4 weeks; 2) the first experimental group: PPD (60 […]) for 4 weeks; 3) the second group: PPD ([…]) for 4 weeks and a drug (1.5 mg/kg/day) prepared from WCT003 for the last 2 weeks of; 4) the third experimental group: PPD (60 μg/kg/day) for 4 weeks and a drug (1.5 mg/kg/day) prepared from WCT006 for the last 2 weeks.
It could be known from the experiment data that para-phenylenediamine induces inflammatory response and ischemia in the bladders of the rats in the first experimental group.

[2] = test system: bladder of adult female Wistar rats; experiment: intravesical pressure measurement in para-phenylenediamine-treated rats; assay type: in vivo
Procedure: as §1
Then, each group of the rats were anesthetized with urethane (1.2 g/kg) via percutaneously injection, and a catheter was placed in a left femoral artery of each of the rats to measure arterial pressure (ABP). Meanwhile, intravesical pressure of the rats were also measured to obtain the parameters such as bladder intercontraction interval (ICI), urination time (MT), maximum urination pressure (MVP), contraction amplitude (A=MVP-BP), urination pressure threshold (PT), etc., as shown in FIG. 3 to FIG. 5.

[3] = test system: reactive oxygen species in the bladder cells; experiment: reactive oxygen species count in the bladder (in vivo); design: species or system Wistar rats; details: PPD alone i.p. for 4 weeks, FIG. 9 and 10
Procedure: as §1
FIG. 10 show the analytical data of the reactive oxygen species count in vivo for each group of rats. It could be seen from FIG. 9 and FIG. 10 that the reactive oxygen species count in the bladder cells of the first experimental group of rats is much higher than that of the control group.

[4] = test system: adult female Wistar rats; experiment: metabolic cage sample data; assay type: in vivo
Procedure: as §1
Referring to Table 2, which lists the sample data collected from the rats of the control group and the first experimental group where were placed in the metabolic cage: […]

[5] = test system: reactive oxygen species; experiment: luminol and lucigenin chemiluminescence of blood or urine samples (in vitro); design: species or system Wistar rats; details: PPD i.p. for 4 weeks
Procedure: To determine the effect of the drug prepared from the nickel complex WCt003 and WCt006 on eliminating reactive oxygen species, a luminol and lucigenin chemiluminescence (CL) method was utilized. The method includes the following steps: 0.2 ml sample of blood or urine was mixed with 0.5 ml of 1 mmol/L lucigenin or 0.2 mmol/L luminol, and then the mixture was analyzed with a chemiluminescence analysis system, wherein, the recorded signals were corresponding to the hydrogen peroxide (H2O2) and hypochlorous acid (HOCl) count in the luminol method, while the recorded signals were corresponding to the superoxide anion (O2^−) count in the lucigenin method.

[6] = first experimental group: PPD alone i.p. for 4 weeks
[7] = first experimental group: PPD i.p. for 4 weeks

Nc1ccc(N)cc1 [para-phenylenediamine]
mast cell in the bladder ([1]; FIG. 1): significant increase | neutrophil infiltration in the bladder tissue ([1]; FIG. 1): have neutrophil infiltration in the bladder tissue | perfusion unit ([1]; FIG. 2): reduced | bladder intercontraction interval vs control group ([2]; PPD i.p., in words, Table 3 and FIG. 6): significantly shorter | A (contraction amplitude) [2, 6]: 20.3 ± 0.9 mmHg | ICI (bladder intercontraction interval) [2, 6]: 35.8 ± 6.0 s | MVP (maximum urination pressure) [2, 6]: 30.6 ± 0.9 mmHg | reactive oxygen species count in the bladder cells vs control group [3]: much higher | stool vs control group ([4]; PPD i.p. for 4 weeks, in words): more | urinary frequency vs control group ([4]; PPD i.p. for 4 weeks, in words): more frequent | urine vs control group ([4]; PPD i.p. for 4 weeks, in words): more | Body Weight [4, 7]: 277.8 ± 3.8 g | Food [4, 7]: 22.9 ± 4.4 g | Stool [4, 7]: 35.7 ± 8.1 g | Urinary frequency (24 hours) [4, 7]: 53.1 ± 13.3 | Urine [4, 7]: 32.7 ± 7.5 mg | Water intake [4, 7]: 57.7 ± 7.2 mL | O2− count in the blood sample vs control group ([5]; blood, lucigenin, FIG. 8): higher | H2O2 and HOCl counts in the blood sample vs control group ([5]; blood, luminol, FIG. 8): significantly higher | reactive oxygen species count in urine samples vs control group ([5]; urine, FIG. 7): no significant difference
